In patent US20120177701A1, “COMPOSITIONS COMPRISING IMMUNOSTIMULATORY NUCLEIC ACIDS AND RELATED METHODS” (priority 2010, published 2012):

Assays:
HEK-Blue™ Null = assay type: cell-based, human
human TLR3 = molecular target: T1, human TLR3 (Homo sapiens, UniProt O15455); assay type: cell-based
T1 construct: expressed in transfected cells; host or cells: HEK-Blue hTLR3 (HEK293-derived reporter line)
T1 sequence (O15455 24-904): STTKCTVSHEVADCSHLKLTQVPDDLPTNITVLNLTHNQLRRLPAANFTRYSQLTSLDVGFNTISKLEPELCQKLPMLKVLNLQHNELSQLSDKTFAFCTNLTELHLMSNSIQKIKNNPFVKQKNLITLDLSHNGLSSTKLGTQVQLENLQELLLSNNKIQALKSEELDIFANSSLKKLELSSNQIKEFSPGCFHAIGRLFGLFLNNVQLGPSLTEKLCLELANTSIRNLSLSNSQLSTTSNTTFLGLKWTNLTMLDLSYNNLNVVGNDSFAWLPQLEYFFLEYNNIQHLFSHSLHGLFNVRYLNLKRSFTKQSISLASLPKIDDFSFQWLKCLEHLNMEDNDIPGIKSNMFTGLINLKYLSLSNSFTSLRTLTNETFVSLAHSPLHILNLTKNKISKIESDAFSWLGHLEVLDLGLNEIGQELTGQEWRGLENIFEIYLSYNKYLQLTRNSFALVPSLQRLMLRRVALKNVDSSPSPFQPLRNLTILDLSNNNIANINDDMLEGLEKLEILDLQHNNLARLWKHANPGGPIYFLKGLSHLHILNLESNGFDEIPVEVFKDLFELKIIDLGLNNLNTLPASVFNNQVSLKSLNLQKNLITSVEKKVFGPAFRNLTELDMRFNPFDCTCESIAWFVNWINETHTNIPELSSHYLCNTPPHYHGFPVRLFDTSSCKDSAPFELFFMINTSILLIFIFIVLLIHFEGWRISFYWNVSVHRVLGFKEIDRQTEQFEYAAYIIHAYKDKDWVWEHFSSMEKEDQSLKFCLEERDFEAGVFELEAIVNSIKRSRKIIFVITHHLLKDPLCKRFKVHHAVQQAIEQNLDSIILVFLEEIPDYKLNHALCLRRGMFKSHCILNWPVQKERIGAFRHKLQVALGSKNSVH

human TLR9 = molecular target: T2, human TLR9 (Homo sapiens, UniProt Q9NR96); assay type: cell-based
T2 construct: expressed in transfected cells; host or cells: HEK-Blue hTLR9 (HEK293-derived reporter line)
T2 sequence (Q9NR96 26-1032): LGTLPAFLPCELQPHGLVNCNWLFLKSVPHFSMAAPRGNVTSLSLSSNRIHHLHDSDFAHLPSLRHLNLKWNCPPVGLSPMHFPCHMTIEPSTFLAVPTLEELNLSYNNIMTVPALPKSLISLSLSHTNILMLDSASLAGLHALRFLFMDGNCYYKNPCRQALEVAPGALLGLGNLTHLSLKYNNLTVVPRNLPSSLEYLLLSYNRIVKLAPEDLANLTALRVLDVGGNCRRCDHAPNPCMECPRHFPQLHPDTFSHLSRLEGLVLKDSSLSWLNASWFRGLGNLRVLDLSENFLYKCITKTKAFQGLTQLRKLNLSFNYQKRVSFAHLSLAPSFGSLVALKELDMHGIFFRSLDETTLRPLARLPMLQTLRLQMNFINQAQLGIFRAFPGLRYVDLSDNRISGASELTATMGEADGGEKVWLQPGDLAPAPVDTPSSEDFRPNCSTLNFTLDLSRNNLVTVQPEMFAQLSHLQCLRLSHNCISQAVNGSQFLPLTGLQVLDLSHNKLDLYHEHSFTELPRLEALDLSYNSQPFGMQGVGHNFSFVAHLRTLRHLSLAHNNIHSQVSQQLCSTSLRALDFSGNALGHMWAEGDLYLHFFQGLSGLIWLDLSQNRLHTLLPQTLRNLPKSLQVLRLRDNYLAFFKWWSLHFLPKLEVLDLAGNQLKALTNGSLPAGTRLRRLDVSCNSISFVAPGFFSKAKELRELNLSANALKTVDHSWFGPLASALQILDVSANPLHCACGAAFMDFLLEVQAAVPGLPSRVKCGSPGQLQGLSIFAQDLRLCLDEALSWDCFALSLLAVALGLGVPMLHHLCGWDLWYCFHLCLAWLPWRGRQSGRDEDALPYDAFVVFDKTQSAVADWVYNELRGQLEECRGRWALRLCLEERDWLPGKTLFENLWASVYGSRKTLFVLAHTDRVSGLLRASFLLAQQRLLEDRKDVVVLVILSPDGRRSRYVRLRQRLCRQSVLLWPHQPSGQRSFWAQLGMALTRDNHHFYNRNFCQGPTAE

murine splenocytes = assay: Immune cell activation (CD69 expression, FACS) in murine splenocytes; assay type: cell-based, mouse; settings: 20 hours
Method: In addition, upon removal of the supernatant at 20 hours post-incubation, the mouse cells were stained for the following cell markers: GR1, F4/80, CD11c, CD220, CD3, Ly49b, and CD69, and analyzed by FACS. Different immune cell populations were distinguished as follows: macrophages (F4/80^+/GR1^−); plasmacytoid dendritic cells or pDC (CD11c^+/CD220^+); B cells (CD220^+/CD11c^−); NK (CD3^−/Ly49b^+); myeloid DC or mDC ([…]); granulocytes (eosinophils) (GR1^+high/F4/80^−); T cells (CD3^+); and NKT cells (CD3^+/Ly49b^+). All immune cell populations were quantified by the expression of CD69 (am early activation marker).

[1] = system: primary human lymphocytes; assay type: cell-based; settings: 20 hours
[2] = 200 nM, compared with R848 1 μM

Substance: 5′-GAGAUGUUAUUUUGUUUUUAAUAUUUC-3′ (phosphorothioate backbone, further chemistry not given here) [SL-0001, phosphorothioated 27-ribonucleotide from the 3′-terminus of Chikungunya virus strain TSI-GSD-218, bases 12010-12036]
- activation of SEAP expression (HEK-Blue™ Null): No activation of SEAP expression
- activation of SEAP expression (human TLR3): No activation of SEAP expression
- activation of SEAP expression (human TLR9): No activation of SEAP expression
- activation of immune cell populations (CD69 expression) (murine splenocytes; 200 nM DOTAP-complexed): induced activation in most of the tested immune cell populations
- immune cell activation compared with R848 and control oligonucleotide (murine splenocytes; 200 nM DOTAP-complexed, R848 1 μM): at least comparable to that generated by treatment with 1 μM of R848, and usually exceeded the effects exhibited by the control oligonucleotide R-0006
- NKT cell activation (CD69) (murine splenocytes; [2]): exceeded the activation observed for R848
- T cell activation (CD69) (murine splenocytes; [2]): exceeded the activation observed for R848
- granulocyte activation (CD69) (murine splenocytes; [2]): exceeded the activation observed for R848
- macrophage activation (CD69) (murine splenocytes; 200 nM, compared with R-0006): especially higher than the activation observed for R-0006
- 11-12(p40) induction [1]: significant levels
- IFNγ induction [1]: significant levels
- IL-4 induction (Th2-type cytokine) [1]: insignificant
- IL-5 induction (Th2-type cytokine) [1]: insignificant
- IL-6 induction [1]: significant levels
- IL-10 induction [1]: significant levels
- IL-23 induction [1]: significant levels
- TNFα induction [1]: significant levels
